Reference: patent US20110097324A1, “COMPOSITIONS AND METHODS FOR MODULATING NICOTINIC/NMDA RECEPTOR FUNCTION” (CENTRE FOR ADDICTION AND MENTAL HEALTH, priority 2008, published 2011)

Key:
[1] = tested on: cultured hippocampal neurons; assay type: cell-based, rat; details: for mEPSC amplitude 30 min after treatment: glycine 200 μM 3 min, choline 1 mM, AP5 100 μM
Experimental: Primary cultures from hippocampus were prepared from fetal Wistar rats (embryonic day 17-19) on Cell+ (Sarstedt) culture dishes as previously described in (10). The cultures were used for experiments on 12-15 d after plating.
Miniature excitatory postsynaptic currents (mEPSCs) were recorded from cultured hippocampal neurons 2 to 4 weeks days after plating under whole-cell patch clamp configuration (11). Electrodes (3-5 MΩ) were pulled from high lead pipettes (Corning 8161, Warner Instruments). Cells were voltage clamped at −70 mV. Access resistance is below 10 MΩ, recordings with access resistance varying more than 10% were rejected from analysis.
To determine whether activation of α7-nAchR is physiologically relevant in regulating synaptic strength, we examined the ability of α7-nAchR activation to modulate miniature excitatory postsynaptic currents (mEPSCs) during LTP in primary cultures of hippocampal neurons. mEPSCs in hippocampal neurons were recorded under whole-cell configuration. […] The cells were held at −70 mV to avoid potential interference by voltage-gated Ca^++ channels (12,13).

[2] = tested on: NMDA receptor; assay type: cell-based, rat
[3] = tested on: CREB; assay type: cell-based, rat
Excerpt: To confirm that α7 nAChR is responsible for the observed activation of CREB, we measured CREB activity in HEK-293 cells expressing α7 nAChR.

[4] = biological target: α7-nAchR-NR2A interaction (Rattus norvegicus, UniProt Q00959+Q05941); assay type: cell-based
Chain of α7-nAchR-NR2A interaction (Q05941 23-502, other chains not shown): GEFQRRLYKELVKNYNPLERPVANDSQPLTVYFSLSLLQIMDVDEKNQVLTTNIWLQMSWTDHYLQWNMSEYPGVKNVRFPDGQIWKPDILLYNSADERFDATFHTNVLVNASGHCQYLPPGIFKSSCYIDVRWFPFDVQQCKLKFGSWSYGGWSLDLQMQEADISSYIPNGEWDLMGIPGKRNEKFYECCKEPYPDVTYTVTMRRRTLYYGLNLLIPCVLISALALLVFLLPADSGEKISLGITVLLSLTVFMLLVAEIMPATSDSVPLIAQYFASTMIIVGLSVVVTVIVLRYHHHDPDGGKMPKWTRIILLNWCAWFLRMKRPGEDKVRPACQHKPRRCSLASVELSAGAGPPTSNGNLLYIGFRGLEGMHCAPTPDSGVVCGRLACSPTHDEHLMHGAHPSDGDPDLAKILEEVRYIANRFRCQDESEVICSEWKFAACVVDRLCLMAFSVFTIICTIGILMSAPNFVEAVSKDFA
Chain of α7-nAchR-NR2A interaction (Q00959 20-1464, other chains not shown): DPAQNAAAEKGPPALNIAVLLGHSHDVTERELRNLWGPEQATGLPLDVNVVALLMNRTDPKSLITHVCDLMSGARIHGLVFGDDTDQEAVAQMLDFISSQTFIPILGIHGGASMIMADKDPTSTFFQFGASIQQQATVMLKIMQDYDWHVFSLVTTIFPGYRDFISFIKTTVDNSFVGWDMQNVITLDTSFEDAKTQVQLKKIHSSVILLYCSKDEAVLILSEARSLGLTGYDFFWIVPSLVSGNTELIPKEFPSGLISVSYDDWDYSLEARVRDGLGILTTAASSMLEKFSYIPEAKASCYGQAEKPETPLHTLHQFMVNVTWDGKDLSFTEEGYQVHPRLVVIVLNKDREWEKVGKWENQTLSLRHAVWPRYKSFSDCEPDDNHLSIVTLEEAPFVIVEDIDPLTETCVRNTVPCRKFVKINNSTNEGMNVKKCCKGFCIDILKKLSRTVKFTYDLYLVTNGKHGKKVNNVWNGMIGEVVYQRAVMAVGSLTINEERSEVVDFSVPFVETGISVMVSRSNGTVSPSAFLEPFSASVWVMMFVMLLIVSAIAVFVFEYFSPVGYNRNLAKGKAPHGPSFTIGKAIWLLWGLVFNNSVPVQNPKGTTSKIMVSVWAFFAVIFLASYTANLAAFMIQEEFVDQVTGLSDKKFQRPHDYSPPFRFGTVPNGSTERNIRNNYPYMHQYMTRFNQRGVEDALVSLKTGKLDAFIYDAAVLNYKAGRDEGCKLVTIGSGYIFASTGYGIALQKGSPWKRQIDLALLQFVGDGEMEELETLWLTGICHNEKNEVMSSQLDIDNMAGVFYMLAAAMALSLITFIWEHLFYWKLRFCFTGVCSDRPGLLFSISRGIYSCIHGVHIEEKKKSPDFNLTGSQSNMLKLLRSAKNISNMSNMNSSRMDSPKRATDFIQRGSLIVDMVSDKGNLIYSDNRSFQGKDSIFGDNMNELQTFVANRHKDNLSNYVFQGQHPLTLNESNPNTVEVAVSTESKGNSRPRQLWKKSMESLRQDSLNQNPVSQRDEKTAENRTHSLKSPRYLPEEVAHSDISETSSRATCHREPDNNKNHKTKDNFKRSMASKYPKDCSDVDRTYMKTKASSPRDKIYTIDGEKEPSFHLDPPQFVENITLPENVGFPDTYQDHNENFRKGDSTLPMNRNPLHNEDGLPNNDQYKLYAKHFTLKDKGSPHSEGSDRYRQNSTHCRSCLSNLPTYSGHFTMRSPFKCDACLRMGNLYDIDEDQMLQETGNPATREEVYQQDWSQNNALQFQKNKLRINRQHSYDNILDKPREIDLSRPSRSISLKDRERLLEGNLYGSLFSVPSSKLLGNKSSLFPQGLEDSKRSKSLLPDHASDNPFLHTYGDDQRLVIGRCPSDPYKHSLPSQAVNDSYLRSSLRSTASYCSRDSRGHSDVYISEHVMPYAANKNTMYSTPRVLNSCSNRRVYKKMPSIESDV
Experimental: To examine the effect of α7-nAchR activation on the interaction between α7-nAchR and NMDA receptors, we examined the ability of antibody against NR2A subunit to co-precipitate with the α7-nAchR in hippocampal primary culture treated with 1 mM choline or choline/NMDA (50 μM).

[5] = tested on: α7 nAChR: NR2A complex; details: in vivo, 6 mg/kg/day
Experimental: Thus, we pretreated rats with either nicotine or saline for 7 days subdermally (osmotic mini-pump, 6 mg/kg/day), and the expression of NR2A and α7 nAChR was examined in Western blot analysis.

NC(CCCP(=O)(O)O)C(=O)O (stereo not drawn) [AP5]
effect on amplitude of mEPSCs [1]: can be abolished

C[C@]12N[C@H](Cc3ccccc31)c1ccccc12 [MK-801]
block of enhancement of whole cell current induced by co-application of choline with NMDA [2]: can be blocked

CCN1C[C@]2(COC(=O)c3ccccc3N3C(=O)C[C@H](C)C3=O)CC[C@H](OC)[C@@]34[C@@H]5C[C@H]6[C@H](OC)[C@@H]5[C@](O)(C[C@@H]6OC)[C@](O)([C@@H](OC)[C@H]23)[C@@H]14 [MLA]
block of nicotine-enhanced CREB activity [3]: can be blocked

CN[C@H](CC(=O)O)C(=O)O [NMDA, N-methyl-D-aspartate]
α7-nAchR-NR2A interaction after treatment [4]: no significant effect

C[N+](C)(C)CCO [choline]
mEPSC amplitude 30 min after treatment [1]: 31.4+/−2.7 pA

NCC(=O)O [glycine]
mEPSC amplitude 30 min after treatment [1]: 26.5+/−2.3 pA

CN1CCCC1c1cccnc1 (stereo not drawn) [nicotine]
expression of NR2A or α7 nAChR in rat hippocampus [5]: no significant difference | α7 nAChR: NR2A complex formation in rat hippocampus [5]: significantly enhanced

α-bungarotoxin
block of enhancement of whole cell current induced by co-application of choline with NMDA [2]: can abolish the choline induced upregulation of NMDA-mediated current
